The test concerns Ishikawa human endometrial tumor cells. Nature of the test: Ishikawa alkaline phosphatase assay. The format is cell-based. The settings on record: for EC50: Homo sapiens, Ishikawa; for EC50 / Agonist % Eff: agonist mode; for Agonist % Eff: % efficacy versus the response to Tamoxifen; for Antagonist % Eff: antagonist mode, % efficacy versus E2 (1 nM) alone. The source says:
Ishikawa Alkaline Phosphatase Assay
Ishikawa human endometrial tumor cells are maintained in MEM (minimum essential medium, with Earle's salts and L-Glutamine, Gibco BRL, Gaithersburg, Md.), supplemented with 10% fetal bovine serum (FBS) (V/V), (Gibco BRL). One day prior to assay, growth media is changed to assay medium, DMEM/F-12 (3:1) (Dulbecco's Modified Eagle Medium: Nutrient Mixture F-12, 3:1 Mixture, phenol red-free, Gibco BRL) supplemented with 5% dextran coated charcoal stripped fetal bovine serum (DCC-FBS) (Hyclone, Logen, Utah), L-Glutamine (2 mM), MEM sodium pyruvate (1 mM), HEPES (N-[2-hydroxyethyl]piperazine-N′-[2-ethanesulfonic acid] 2 mM) all from Gibco BRL). After an overnight incubation, ishikawa cells are rinsed with Dulbecco's Phosphate Buffered Saline (1×) (D-PBS) without Ca^+2 and Mg^+2 (Gibco BRL), and trypsinized by a 3 minute incubation with 0.25% Trypsin/EDTA, phenol red-free (Gibco BRL). Cells are resuspended in assay medium and adjusted to 250,000 cells/ml. Approximately 25,000 cells in a 100 ul media are added to flat-bottom 96 wells microculture plates (Costar 3596) and incubated at 37° C. in a 5% CO2 humidified incubator for 24 hours. The next day, serial dilutions of compounds are prepared in assay medium (at 6 times the final concentration in the assay). The assay is run in dual mode, agonist and antagonist modes. For the agonist mode, plates receive 25 μl/well of assay medium followed by 25 μl/well of diluted compounds (at 6× the final concentrations). For the antagonist mode, plates receive 25 μl/well of 6 nM E2 (β-Estradiol, Sigma, St. Louis, Mo.) followed by 25 μl/well of diluted compounds (at 6× the final concentrations). After an additional 48-hour incubation at 37° C. in a 5% CO2 humidified incubator, media is aspirated from wells and 100 μl fresh assay medium is added to each microculture. Serial dilutions of compounds are prepared and added to the cells as described above. After an additional 72 hour incubation at 37° C. in a 5% CO2 humidified incubator, the assay is quenched by removing media and rinsing plates twice in Dulbecco's Phosphate Buffered Saline (1×) (D-PBS) (Gibco BRL). The plates are dried for 5 min and frozen at −70° C. for at least 1 hour. The plates are then removed from the freezer and allowed to thaw at room temperature. To each well, 100 μl of 1-Step™ PNPP (Pierce Chemical Company, Rockford, Ill.) is added. After a 20-minute incubation, plates are read on a spectophotometer at 405 nm. The data is fitted to a linear interpolation to derive EC50 (for agonist mode) or IC50 (for antagonist mode) values. For the agonist mode, a % efficacy for each compound is calculated versus the response to Tamoxifen. For the antagonist mode, a % efficacy for each compound is calculated versus E2 (1 nM) alone.

Consider `Oc1ccc(C2CCc3cc(O)ccc3N2c2ccc(OCCN3CCCC3)cc2)cc1` (stereo not drawn) [Example 4], for which the 50% effective concentration (EC50) (in general, the concentration at which the effect is half-maximal) came to 161 nM; the “Agonist % Eff” value was 36%; the “Antagonist % Eff” value is reported as 40%.

`Oc1ccc(C2CCc3cc(O)ccc3N2c2ccc(OCCN3CCCCC3)cc2)cc1` (stereo not drawn) [Example 3]: the concentration giving a half-maximal response (EC50) was determined as 262 nM, the “Agonist % Eff” value is 117% and the “Antagonist % Eff” value was −0.2%.

For the origin of these results see patent US6962928B2, “Tetrahydroquinoline derivatives for the inhibition of osteoporosis, estrogen dependent breast cancer, endometriosis and uterine fibrosis” (Eli Lilly and Company, priority 2001, dated 2005).
